{
  "source": "patent US11472814B2",
  "about": "“Thienopyranones and furanopyranones as checkpoint inhibitors and modulators of anti-tumor immunity” (SignalRx Pharmaceuticals, Inc., priority 2017, dated 2022)",
  "key": {"SYK": {"target": "T1, SYK (Homo sapiens, UniProt P43405)", "T1 construct": "purchased Reaction Biology Corp., Malvern, Pa; (contract assay service)", "test": "SYK inhibition IC50 (Reaction Biology Corp.)", "type": "biochemical", "settings": "10-point curve; read-out: SYK IC50", "source_text": "(§1) The inhibitory activity of a compound of the invention against PI3K and/or BRD4 and/or SYK and/or CDK4/6 can be readily determined using methods known to the skilled artisan, or by commercial vendors offering such services. […] In vivo, PI3K inhibition can be determined from target tissue biopsies by standard tissue processing to disrupt cells and then performing Western Blot analysis to determine the presence or absence of pAKT (substrate of PI3K) relative to a control sample. The activity of a compound of the invention as an inhibitor of a bromodomain-containing protein, such as a BET protein, such as BRD2, BRD3, BRD4, and/or BRDT, or an isoform or mutant thereof, may be determined in vitro, in vivo, or in a cell line. In vitro assays include assays that determine inhibition of bromodomain-containing proteins. Alternatively, inhibitor binding may be determined by running a competition experiment where a provided compound is incubated with a bromodomain-containing protein, such as a BET protein bound to known ligands, labeled or unlabeled. For example, bromodomain inhibition can be determined in vitro using Alpha Screen Technology (http://www.reactionbiologv.com/webapps/site/NewsPDFs/Bromodomain%20Assay %20Platform %20for %20Drug %20Screening %20and %20Discovery.pdf). In vivo bromodomain inhibition can be determined indirectly by evaluating the amount of protein present of proteins whose genes' transcription is influenced or controlled by the bromodomain protein, for example, the MYCN protein transcription is controlled by BRD4 (J. E. Delmore et al., Cell 2011, 146, 904-917; A. Puissant, Cancer Discov. 2013, 3, 308-323). Bromodomain inhibition may also be predicted by in silico modeling as described below in the Examples. Additionally, the company Promega offers a SYK luminescent assay to determine a compound's ability to inhibit the SYK protein (https://www.promega.com/-/media/files/resources/protocols/kinase-enzyme-appnotes/syk-kinase-assay-protocol.pdf?la=en).\nCompounds of the invention were characterized for their ability to inhibit target proteins using third party vendors offering such services. PI3K alpha, gamma, and delta inhibition activity was determined by Thermo Fisher Scientific-Biosciences Life Sciences Solutions, Madison, Wis. The bromodomain protein inhibition (binding domain 1 and 2 of BRD4) as well as SYK inhibition was determined at Reaction Biology Corp., Malvern, Pa. Additional information on each of the assays performed and services provided is available at each company's website on the internet (https://www.thermofisher.com/us/en/home/life-science.html and http://www.reactionbiology.com/webapps/site, respectively). The IC50 data (shown below in Table 5) was calculated from a 10-point curve and is expressed in nanomolar concentration (nM) rounded off to the nearest whole number. Where multiple values were obtained the range from lowest to highest values is presented. NI=no inhibition detected up to 50 uM or IC50 not reached at 50 uM."}, "BRD4-2": {"target": "T2, BRD4-2 (Homo sapiens, UniProt O60885)", "T2 construct": "purchased Reaction Biology Corp., Malvern, Pa; (contract assay service)", "test": "Bromodomain protein inhibition IC50, binding domain 2 of BRD4 (Reaction Biology Corp.)", "settings": "10-point curve", "source_text": "as §1\nCompounds of the invention were characterized for their ability to inhibit target proteins using third party vendors offering such services. PI3K alpha, gamma, and delta inhibition activity was determined by Thermo Fisher Scientific-Biosciences Life Sciences Solutions, Madison, Wis. The bromodomain protein inhibition (binding domain 1 and 2 of BRD4) as well as SYK inhibition was determined at Reaction Biology Corp., Malvern, Pa. […] The IC50 data (shown below in Table 5) was calculated from a 10-point curve and is expressed in nanomolar concentration (nM) rounded off to the nearest whole number. […]"}, "[1]": {"system": "Bone marrow derived macrophages (BMDMs), M1 gene expression", "test": "M1 marker mRNA in LPS stimulated bone marrow derived macrophages (RT PCR)", "type": "cell-based, murine", "source_text": "[…] M2 markers Mmr, Ym1, Fizz1 and Mgl mRNA and M1 markers I11, 116 and Tnfa mRNA was quantitated by RT PCR. Values are mean±SEM (n=3-4). Expression of gene of interest is normalized to GAPDH. […] The data provide direct evidence that Compound 1 can block the immunosuppressive macrophage M2 gene expression and activate the M1 gene expression and therefore activate antitumor innate immune cell differentiation in vitro.\nRelative mRNA expression of IL4 or LPS polarized genes in murine bone marrow derived macrophages (BMDMs) treated with various concentrations of inhibitors in vitro. Conclusion: Compound 3 suppressed in vitro macrophage specific immunosuppressive M2 gene expression markers and augmented macrophage stimulatory immune response M1 genes respectively."}, "[2]": {"system": "tumor associated macrophages (TAMs) from LLC tumors", "test": "RT-PCR gene expression in tumor associated macrophages sorted from LLC tumors", "type": "in vivo, mice", "source_text": "RT-PCR analysis of cDNAs generated from mRNAs reflecting tumor associated macrophages (TAMs) isolated from LLC tumors grown in WT animals and treated with Compound 3. ***p<0.001**p<0.01 and *p<0.05, t test. […] Expression of gene of interest is normalized to GAPDH. […] Statistical significance is accessed by t test. For example, Compound 3 augmented IL1 gene expression in TAMs 8-fold and suppressed Arginase (Arg) 98% in TAMs isolated from LLC tumors in vivo."}, "[3]": {"system": "LLC tumors, Ifng and Gzmb mRNA", "test": "mRNA expression of Ifng and Gzmb in LLC tumors", "type": "in vivo, mice", "settings": "normalized to GAPDH", "experimental": "Effect of Compound 3 treatment in vivo at 10 mg/kg dose on mRNA expression of interferon (Ifng) gamma and granzyme b (Gzmb) in LLC tumors implanted in vehicle vs Compound 3 treated mice (n=3, biological replicates, p<0.05, t test). Relative gene expression is normalized to a house keeping gene, GAPDH for comparison."}, "CT26 tumor cells": {"system": "CT26 tumor cells", "test": "In vitro viability of CT26 tumor cells", "type": "cell-based", "settings": "for % Cell Viability: CT26 tumor cells in vitro", "source_text": "We investigated the effect of Compound 3 on immune cell in vitro and on tumor growth in in vivo in immunocompetent syngeneic tumor models and the effects on the macrophage and T cell immune compartment in vivo by this compound. […] In order to distinguish whether Compound 3 blocks tumor growth due to its effect on immune cell compartment and not on tumor compartment, we tested the effect of this chemotype on CT26 tumor growth in immunodeficient NSG mice vs immunocompetent Balb/c mice. […] Compound 3 has combinatorial immune-oncologic activity in vivo to stimulate anti-cancer innate and adaptive immunity in well-defined accepted immune competent murine models for cancer immunotherapy.\nCompound 3 has no effect on the in vitro viability of CT26 tumor cells."}, "[4]": {"settings": "Table 8, 200 nM, LPS polarized murine BMDMs, control = 1"}, "[5]": {"settings": "LLC tumors in WT animals, vs vehicle"}, "[6]": {"settings": "TAMs isolated from LLC tumors in vivo, vs vehicle"}},
  "note": "Entries after “also recorded” stand apart in the source; their conditions may differ.",
  "data": [
    {"compound": "Cc1nn(-c2ccnc(Nc3ccc(-c4csc5c(=O)cc(N6CCOCC6)oc45)cc3)n2)cc1CN1CCC1", "note": "[Compound 3, 3-[p-(4-{4-[(1-Azetidinyl)methyl]-3-methyl-1H-pyrazol-1-yl}-2-pyrimidinylamino)phenyl]-5-morpholino-4-oxa-1-thia-7-indenone]", "values": [
      {"measurement": "IC50", "setting": "SYK", "result": "< 100", "unit": "nM"},
      {"measurement": "IC50", "setting": "BRD4-2", "result": "1000 to 5000", "unit": "nM"},
      {"measurement": "Ifng relative mRNA expression (M1 gene)", "setting": "[1]; [4]", "result": "5.043 ± 1.9"},
      {"measurement": "Il1 relative mRNA expression (M1 gene)", "setting": "[1]; [4]", "result": "7.19 ± 0.9"},
      {"measurement": "Il6 relative mRNA expression (M1 gene)", "setting": "[1]; [4]", "result": "2.5 ± 0.2"},
      {"measurement": "Nos2 relative mRNA expression (M1 gene)", "setting": "[1]; [4]", "result": "2.458 ± 0.31"},
      {"measurement": "Tnfa relative mRNA expression (M1 gene)", "setting": "[1]; [4]", "result": "2.2 ± 0.3"},
      {"measurement": "macrophage stimulatory immune response M1 genes", "setting": "[1]; murine BMDMs, LPS polarized, various concentrations", "result": "augmented"},
      {"measurement": "expression of immune response genes in TAMs", "setting": "[2]; [5]", "result": "activated the expression of immune response genes"},
      {"measurement": "expression of macrophage M2 immunosuppressive genes in TAMs", "setting": "[2]; [5]", "result": "suppressed the expression of macrophage M2 immunosuppressive genes"},
      {"measurement": "Nos2 gene expression in macrophages sorted from LLC tumors", "setting": "[2]; TAMs from LLC tumors in treated WT mice, normalized to GAPDH, vehicle 0.95 ± 0.06", "result": "21 ± 0.19"},
      {"measurement": "Vegf gene expression in macrophages sorted from LLC tumors", "setting": "[2]; TAMs from LLC tumors in treated WT mice, normalized to GAPDH, vehicle 0.995 ± 0.06", "result": "0.56 ± 0.05"},
      {"measurement": "Il1 gene expression in macrophages sorted from LLC tumors", "setting": "[2]; TAMs from LLC tumors in treated WT mice, normalized to GAPDH, vehicle 1.0 ± 0.04", "result": "8.3 ± 1.43"},
      {"measurement": "Ifng gene expression in macrophages sorted from LLC tumors", "setting": "[2]; TAMs from LLC tumors in treated WT mice, normalized to GAPDH, vehicle 1 ± 0.3", "result": "3.26 ± 1.04"},
      {"measurement": "Il6 gene expression in macrophages sorted from LLC tumors", "setting": "[2]; TAMs from LLC tumors in treated WT mice, normalized to GAPDH, vehicle 1.0 ± 0.3", "result": "1.8 ± 0.16"},
      {"measurement": "Tgfb gene expression in macrophages sorted from LLC tumors", "setting": "[2]; TAMs from LLC tumors in treated WT mice, normalized to GAPDH, vehicle 1 ± 0.7", "result": "0.35 ± 0.014"},
      {"measurement": "Arg gene expression in macrophages sorted from LLC tumors", "setting": "[2]; TAMs from LLC tumors in treated WT mice, normalized to GAPDH, vehicle 1 ± 0.9", "result": "0.08 ± 0.004"},
      {"measurement": "Arginase (Arg) suppression in TAMs", "setting": "[2]; [6]", "result": 98, "unit": "%"},
      {"measurement": "IL1 gene expression in TAMs, augmentation", "setting": "[2]; [6]", "result": 8, "unit": "fold"},
      {"measurement": "Ifng mRNA expression in LLC tumors", "setting": "[3]; 10 mg/kg in vivo, n=3, vehicle 0.8 ± 0.18", "result": "1.4 ± 0.27,"},
      {"measurement": "Gzmb mRNA expression in LLC tumors", "setting": "[3]; 10 mg/kg in vivo, n=3, vehicle 0.87 ± 0.27", "result": "1.87 ± 0.5"},
      {"measurement": "expression of Ifng and Gzmb in LLC tumors", "setting": "[3]; 10 mg/kg, vs vehicle", "result": "increased expression of the inflammatory cytokines, Ifng and GzmB; also recorded: increased the expression of immunostimulatory T cell immune effectors"},
      {"measurement": "in vitro viability of CT26 tumor cells", "setting": "CT26 tumor cells", "result": "didn't show any effect; also recorded: no effect"},
      {"measurement": "% Cell Viability", "setting": "CT26 tumor cells; Log Inhibitor conc. 1.68867", "result": "96.5 ± 5.3", "unit": "%"},
      {"measurement": "% Cell Viability", "setting": "CT26 tumor cells; Log Inhibitor conc. 1.9897", "result": "96 ± 8.0", "unit": "%"},
      {"measurement": "% Cell Viability", "setting": "CT26 tumor cells; Log Inhibitor conc. 2.29073", "result": "91.6 ± 8.9", "unit": "%"},
      {"measurement": "% Cell Viability", "setting": "CT26 tumor cells; Log Inhibitor conc. 2.59176", "result": "91.3 ± 5.13", "unit": "%"},
      {"measurement": "% Cell Viability", "setting": "CT26 tumor cells; Log Inhibitor conc. 2.89279", "result": "89.8 ± 6.7", "unit": "%"},
      {"measurement": "% Cell Viability", "setting": "CT26 tumor cells; Log Inhibitor conc. 3.19382", "result": "87.3 ± 4.1", "unit": "%"},
      {"measurement": "% Cell Viability", "setting": "CT26 tumor cells; Log Inhibitor conc. 3.49485", "result": "87.1 ± 9.6", "unit": "%"},
      {"measurement": "% Cell Viability", "setting": "CT26 tumor cells; Log Inhibitor conc. 3.79588", "result": "84.3 ± 4.3", "unit": "%"},
      {"measurement": "% Cell Viability", "setting": "CT26 tumor cells; Log Inhibitor conc. 4.09691", "result": "83.9 ± 6.27", "unit": "%"},
      {"measurement": "% Cell Viability", "setting": "CT26 tumor cells; Log Inhibitor conc. 4.39794", "result": "83.6 ± 5.1", "unit": "%"},
      {"measurement": "% Cell Viability", "setting": "CT26 tumor cells; Log Inhibitor conc. 4.69897", "result": "77.4 ± 5.0", "unit": "%"}
    ]}
  ]
}
